pIC50: −log10 of the molar value. “Also recorded” adds a separate entry of the source. Like-named read-outs stand apart in the source and are kept apart here.
Columns and labels:
U373 = conditions: cited from earlier work
U87 [1] = conditions: cited from earlier work
T98G [2] = conditions: cited from earlier work
NHE1 [3] = target: T1, NHE1 (Homo sapiens, UniProt P19634); experiment: NHE1 inhibition: sodium-dependent pHi recovery in BCECF-loaded U87 glial cells after ammonium chloride pre-pulse; format: cell-based; parameters: Sodium-dependent proton extrusion in U87 glial cells and in primary astrocytes is mediated by the type 1 sodium proton exchanger (NHE1); endogenous in cells; host or cells: U87 human glioma cells
Procedure: Intracellular pH Measurements. U87 glial cells were grown on glass coverslips and incubated for 30 minutes at 37° C. with the pH-sensitive dye, 2′,7′-bis(2-carboxyethyl)-5(6)-carboxyfluorescein-AM (BCECF-AM; Molecular Probes, OR). Cells were rinsed with HEPES Ringer buffer twice and maintained at 37° C. for an additional 15 minutes to permit intracellular hydrolysis of the AM ester; trapping BCECF within the cells. Cells on coverslips were placed in a Hitachi F2000 fluorescent spectrophotometer and excited at 440 and 507 nm with fluorescent emissions recorded at 535 nm (Hegde et al., J. Pharmacol. Exp. Ther., 310:67-74 (2004)).
NHE inhibition by compounds 3a and 3c was evaluated using intracellular pH (pHi) measurements in the U87 human glial cell line (Hegde et al., supra). Cells loaded with BCECF were then acidified using the ammonium chloride pre-pulse method (Roos et al., Physiol Rev, 61:296-434 (1981)). The subsequent sodium-dependent recovery of pHi by these cells in the absence of bicarbonate was monitored using a spectrofluorometer. Sodium-dependent proton extrusion in U87 glial cells and in primary astrocytes is mediated by the type 1 sodium proton exchanger (NHE1) (McLean et al., supra; Hegde et al., supra) and was monitored in the presence or absence of compound 3a or 3c.
IC50 drug determinations for NHE1. This method utilizes spectrofluorometric measurements of [H^+]i as described above. The ammonium chloride prepulse method can be used to acidify cells in the presence of HR that is sodium-substituted with NMDG. Perfusion of the acidified cells with HR that contains sodium causes activation of NHE1 that is inhibited in a concentration-dependent fashion as described in McLean et al., supra.

U87 glioma cells [4] = conditions: Hegde et al. 2004; cited from earlier work
U87 glioma cells [5] = tested on: U87 glioma cells
NHE1 [6] = target: T1, NHE1; parameters: host or cells: CHO cell lines; conditions: CHO cell lines, published values; read-out: IC50 of cariporide (NHE); cited from earlier work
U87 [7] = conditions: cited from earlier work; remark: listed apart in the source
T98G [8] = conditions: cited from earlier work; remark: listed apart in the source
A172 = conditions: cited from earlier work
astrocytes = format: cell-based; conditions: amiloride ≧500 μM, 48-72 hours
Excerpt: Cell culture. The five human glioma cell lines can be obtained from the American Tissue Culture Collection (ATCC). Primary cultures of rat astrocytes can be isolated from the cerebral cortex of neonatal rats (0-1 day old). For measurements of [H^+]i, [Ca^2+]i, and [Na^+]i, cells can be grown on glass coverslips coated with rat tail collagen type I.

U87 glioma cells [9] = experiment: Glioma cell death, manual cell counts with trypan blue exclusion
NHE1 and NCX = NHE1 and NCX inhibitors from the literature; cited from earlier work
[10] = tested on: intracerebral U87 glioma xenografts; experiment: Intracerebral U87 glioma xenografts in athymic rats, amiloride infusion by Alzet pump, tumor volume by NMR and histology; format: in vivo, rat; conditions: for Doubling time, day postimplant 10: before drug infusion (day 12-17); for Doubling time, day postimplant 12 / Doubling time, day postimplant 15 / Doubling time, day postimplant 17: drug infusion day 12-17
Procedure: U87 glioma cells were stereotaxically implanted into the corpus striatum of brains of athymic (i.e., T-cell deficient) rats and characterized as an in vivo treatment model. Nissl-stained coronal sections were used to calculate tumor volumes from day 4 to day 28 post-implantation. T1-weighted NMR images were acquired from a separate set of animals to serially measure tumor volumes of intracerebral U87 glioma xenografts.
BrdU was injected intraperitoneally 3 h prior to perfusion fixation with paraformaldehyde in deeply anesthetized animals.

U87 glioma cells [11] = experiment: Glioma cell proliferation, manual cell counts with trypan blue; format: cell-based, human; conditions: glioma cells
Procedure: C(5)-amiloride glycine conjugate (C5am-Gly) inhibits NHE1 in U87 glioma cells and is antiproliferative. […] The inhibitory activity of C5am-Gly against NCX was tested and a systematic log dose screen of C5am-Gly against a panel of glioma cells and primary astrocytes was performed.
Manual cell counts with dye exclusion assays. Identical concentrations of glioma cells can be plated on 60 mm dishes and grown until 50% confluent. Following drug treatments, media containing floating cells can be collected in suspension. Adherent cells can be rinsed in calcium- and magnesium-free phosphate-buffered saline (PBS-CMF) and removed by incubation with 0.25% v/v trypsin for 5 minutes (37° C.). Cell suspensions can be combined with the floating fraction and centrifuged at 350×g for 5 minutes. The resulting pellet (one per dish) can be resuspended in equal volumes of PBS-CMF with 0.4% trypan blue and/or 500 nM Sytox Green. 10 μL aliquots of the suspension can be plated on a hemocytometer, and cells can be counted 5 minutes after staining. Simultaneous staining of cells with trypan (TB) and Sytox Green (SG) can be visualized by switching between visible light and fluorescein green.

U87 cells = experiment: Intracellular translocation into U87 cells by fluorescence microscopy; conditions: 50 μM; 90 and 180 min; 380 nm excitation, 510 nm emission
Excerpt: Fluorescence Microscopy. […] Excitation light was provided by a xenon arc lamp coupled to the Polychrome IV scanning monochromator (Till Photonics; Grafelfing, Germany) that alternately excites with different wavelengths. Excitation light was delivered by fiber optics to cells through the epifluorescence port of a Nikon E600 microscope coupled to a Nikon Fluor 60× water immersion lens. The detector was an Orca II-ER CCD digital camera (Hamamatsu USA; Bridgewater, N.J.), which is controlled by C-Imaging Simple PCI software (Compix; Cranberry Township, Pa.).
Intracellular emission intensities were collected in regions of interest (ROI) from an average of 4-8 cells/field using Simple PCI imaging software. […] Images were captured as TIFF files (C-imaging Simple PCI software), and light and fluorescent images of the same field were imported in Photoshop 6.0 and vector graphics added using Illustrator 9.0.1 (Adobe; San Jose, Calif.).

NCX = conditions: read-out: IC50 for NCX inhibition; cited from earlier work
NHE1 [12] = target: T2, NHE1 (Rattus norvegicus, UniProt P26431); conditions: read-out: IC50 of amiloride (NHE); primary rat astrocytes; cited from earlier work
T2 construct: in primary rat astrocytes (6 μM) (McLean et al., supra); host or cells: primary rat astrocytes

[13] = Neuropathological and neurobehavioral effects of intracerebral/intrathecal amiloride infusion in rats
Procedure: Rats were subjected to a “probe” trial following the last acquisition trial in MWM assessment following tumor and drug administration. The hidden platform was removed and the rat was allowed to swim for 60 seconds. The duration of time spent in the “target” quadrant (formerly containing the platform) was recorded.

[14] = intracerebral amiloride infusion
[15] = intrathecal infusion, tumor-implanted rats

T1 sequence (P19634 whole entry): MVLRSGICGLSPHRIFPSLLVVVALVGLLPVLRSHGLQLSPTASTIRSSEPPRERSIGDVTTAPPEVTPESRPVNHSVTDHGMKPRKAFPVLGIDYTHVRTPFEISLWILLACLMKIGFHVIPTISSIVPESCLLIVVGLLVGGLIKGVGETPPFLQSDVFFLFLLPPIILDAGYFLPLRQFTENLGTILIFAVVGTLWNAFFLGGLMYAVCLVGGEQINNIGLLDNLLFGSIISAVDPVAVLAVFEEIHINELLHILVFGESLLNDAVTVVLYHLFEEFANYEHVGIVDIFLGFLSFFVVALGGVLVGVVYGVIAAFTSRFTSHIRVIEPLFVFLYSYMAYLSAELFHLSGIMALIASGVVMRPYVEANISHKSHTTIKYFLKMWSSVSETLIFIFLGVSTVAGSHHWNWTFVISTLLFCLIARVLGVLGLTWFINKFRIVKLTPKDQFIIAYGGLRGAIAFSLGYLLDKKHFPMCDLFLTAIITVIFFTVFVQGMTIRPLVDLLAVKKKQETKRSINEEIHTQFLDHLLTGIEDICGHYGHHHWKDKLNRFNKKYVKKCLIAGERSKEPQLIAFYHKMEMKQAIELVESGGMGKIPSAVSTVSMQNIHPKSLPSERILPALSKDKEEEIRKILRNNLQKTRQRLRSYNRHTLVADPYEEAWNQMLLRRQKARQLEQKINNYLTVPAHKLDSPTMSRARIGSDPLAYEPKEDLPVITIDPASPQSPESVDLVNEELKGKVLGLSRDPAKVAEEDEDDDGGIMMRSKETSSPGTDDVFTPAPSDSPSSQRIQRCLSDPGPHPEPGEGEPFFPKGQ
T2 sequence (P26431 whole entry): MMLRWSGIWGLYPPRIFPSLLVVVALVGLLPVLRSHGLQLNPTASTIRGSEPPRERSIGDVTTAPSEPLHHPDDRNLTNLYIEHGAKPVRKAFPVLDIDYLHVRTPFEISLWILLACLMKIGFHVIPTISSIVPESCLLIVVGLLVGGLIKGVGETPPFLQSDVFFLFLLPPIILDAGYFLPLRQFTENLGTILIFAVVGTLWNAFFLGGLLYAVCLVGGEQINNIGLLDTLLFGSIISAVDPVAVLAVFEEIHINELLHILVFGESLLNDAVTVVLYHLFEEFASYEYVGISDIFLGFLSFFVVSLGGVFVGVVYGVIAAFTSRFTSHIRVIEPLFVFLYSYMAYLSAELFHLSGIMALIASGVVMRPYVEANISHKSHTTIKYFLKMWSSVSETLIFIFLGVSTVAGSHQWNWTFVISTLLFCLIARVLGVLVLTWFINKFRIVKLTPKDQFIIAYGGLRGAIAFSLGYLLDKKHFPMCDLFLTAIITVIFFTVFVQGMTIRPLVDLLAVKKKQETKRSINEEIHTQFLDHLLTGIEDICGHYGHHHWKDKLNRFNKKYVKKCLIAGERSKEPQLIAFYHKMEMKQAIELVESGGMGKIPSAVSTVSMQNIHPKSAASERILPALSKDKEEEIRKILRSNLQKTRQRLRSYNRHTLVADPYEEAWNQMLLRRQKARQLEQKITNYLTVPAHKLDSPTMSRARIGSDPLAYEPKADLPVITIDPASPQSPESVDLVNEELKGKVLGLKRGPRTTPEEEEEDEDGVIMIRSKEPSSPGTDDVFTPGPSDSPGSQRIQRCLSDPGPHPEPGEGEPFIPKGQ

Cn1nnc2c(C(N)=O)ncn2c1=O [Temozolamide]
Temozolamide sensitivity (U373): yes | Temozolamide sensitivity (U87 [1]): yes | Temozolamide sensitivity (T98G [2]): no

CC(C)c1ccc(C(=O)NC(=N)N)cc1S(C)(=O)=O [Cariporide]
Relative Potency (NHE1 [3]; NHE inhibition relative to amiloride = 1): 676 | pIC50 (NHE1 [3]; U87 glial cells, read-out: IC50 of cariporide (NHE inhibition)): 7.13 | Killing of glioma cells by selective NHE inhibitor (U87 glioma cells [4]): do not kill glioma cells | Cytotoxicity to glioma cells (U87 glioma cells [5]): cytotoxic | pIC50 (NHE1 [6]): 7.52

CN[C@@H]1C[C@H]2O[C@@](C)([C@@H]1OC)n1c3ccccc3c3c4c(c5c6ccccc6n2c5c31)C(=O)NC4 [staurosporine]
G1 arrest with staurosporine (U87 [7]): yes | G1 arrest with staurosporine (T98G [8]): yes | G1 arrest with staurosporine (A172): yes

NC(N)=NC(=O)c1nc(Cl)c(N)nc1N [Amiloride, 3,5-diamino-6-chloro-N-(diaminomethylene)pyrazinecarboxamide]
Killing of astrocytes (astrocytes): not astrocytes | Concentration that killed U87 glioma cells (U87 glioma cells [9]; U87 glioma cells, C2am-Gly within 24 h): 500 µM | Concentration that killed glioma cells (U87 glioma cells [9]; glioma cells, amiloride within 48-72 hours): ≥ 500 µM | Rel. Activity (NHE1 and NCX): NHE > NCX | Reversal of NHE1 inhibition after removal of compound (NHE1 [3]; U87 cells): slow and incomplete recovery; also recorded: prolonged and an incomplete recovery | Glioma Effect: cytotoxic concentration (U87 glioma cells [5]): ≥ 500 µM | Doubling time, day postimplant 10 ([10]; 10 mM amiloride reservoir): 3.07 | Doubling time, day postimplant 12 ([10]; 10 mM amiloride reservoir): 3.40 | Doubling time, day postimplant 15 ([10]; 10 mM amiloride reservoir): 3.99 | Doubling time, day postimplant 17 ([10]; 10 mM amiloride reservoir): 4.44 | Effect on tumor growth rate ([10]; 10 mM reservoir, 28 pmol/24 h, 0.14 nmol): did not affect | Doubling time, day postimplant 10 ([10]; 100 mM amiloride reservoir): 1.23 | Doubling time, day postimplant 12 ([10]; 100 mM amiloride reservoir): 1.98 | Doubling time, day postimplant 15 ([10]; 100 mM amiloride reservoir): 4.58+ | Doubling time, day postimplant 17 ([10]; 100 mM amiloride reservoir): 11.65++ | Increase of tumor doubling time compared to vehicle-treated animals ([10]; 100 mM reservoir, 276 pmol/24 h for 5 days, 1.4 nmol total): 3 fold | Effect on normal brain cell types (histology) [10, 14]: unaffected | Glioma cell death in poorly vascularized tumor regions (eosin staining) [10, 14]: necrotic glioma cell death | Effect on tumor growth rates ([10]; intracerebral infusion at relatively high doses vs vehicle): significantly slowed | Glioma Effect: antiproliferative concentration (U87 glioma cells [11]): < 50 µM | Intracellular accumulation in U87 cells (U87 cells): intracellular accumulation; also recorded: rapid cell permeation | pIC50 (NCX): 3.30 | pIC50 (NHE1 [12]): 5.22 | Neuropathological changes in normal brain cell types ([13]; Sprague-Dawley rats, 276 pmol/24 h intracerebral, 12 days): not observed; also recorded: no demonstrable neuropathology | Balance and fine motor coordination (beam walk) [13, 15]: did not affect | Memory in a spatial learning task (probe trial) [13, 15]: did not affect

Reference: patent US7863415B2 (The Regents of the University of California, priority 2004, dated 2011)
